In ChEMBL document CHEMBL1833846 (Bioorg Med Chem Lett, 2011):

Legend:
[1] = target: T1, Protein deacetylase HDAC6 (Homo sapiens) (UniProt Q9UBN7); assay: Inhibition of HDAC6 assessed as residual activity at 32 uM after 30 mins by Fluor de Lys fluorescence assay
T1 sequence (whole entry): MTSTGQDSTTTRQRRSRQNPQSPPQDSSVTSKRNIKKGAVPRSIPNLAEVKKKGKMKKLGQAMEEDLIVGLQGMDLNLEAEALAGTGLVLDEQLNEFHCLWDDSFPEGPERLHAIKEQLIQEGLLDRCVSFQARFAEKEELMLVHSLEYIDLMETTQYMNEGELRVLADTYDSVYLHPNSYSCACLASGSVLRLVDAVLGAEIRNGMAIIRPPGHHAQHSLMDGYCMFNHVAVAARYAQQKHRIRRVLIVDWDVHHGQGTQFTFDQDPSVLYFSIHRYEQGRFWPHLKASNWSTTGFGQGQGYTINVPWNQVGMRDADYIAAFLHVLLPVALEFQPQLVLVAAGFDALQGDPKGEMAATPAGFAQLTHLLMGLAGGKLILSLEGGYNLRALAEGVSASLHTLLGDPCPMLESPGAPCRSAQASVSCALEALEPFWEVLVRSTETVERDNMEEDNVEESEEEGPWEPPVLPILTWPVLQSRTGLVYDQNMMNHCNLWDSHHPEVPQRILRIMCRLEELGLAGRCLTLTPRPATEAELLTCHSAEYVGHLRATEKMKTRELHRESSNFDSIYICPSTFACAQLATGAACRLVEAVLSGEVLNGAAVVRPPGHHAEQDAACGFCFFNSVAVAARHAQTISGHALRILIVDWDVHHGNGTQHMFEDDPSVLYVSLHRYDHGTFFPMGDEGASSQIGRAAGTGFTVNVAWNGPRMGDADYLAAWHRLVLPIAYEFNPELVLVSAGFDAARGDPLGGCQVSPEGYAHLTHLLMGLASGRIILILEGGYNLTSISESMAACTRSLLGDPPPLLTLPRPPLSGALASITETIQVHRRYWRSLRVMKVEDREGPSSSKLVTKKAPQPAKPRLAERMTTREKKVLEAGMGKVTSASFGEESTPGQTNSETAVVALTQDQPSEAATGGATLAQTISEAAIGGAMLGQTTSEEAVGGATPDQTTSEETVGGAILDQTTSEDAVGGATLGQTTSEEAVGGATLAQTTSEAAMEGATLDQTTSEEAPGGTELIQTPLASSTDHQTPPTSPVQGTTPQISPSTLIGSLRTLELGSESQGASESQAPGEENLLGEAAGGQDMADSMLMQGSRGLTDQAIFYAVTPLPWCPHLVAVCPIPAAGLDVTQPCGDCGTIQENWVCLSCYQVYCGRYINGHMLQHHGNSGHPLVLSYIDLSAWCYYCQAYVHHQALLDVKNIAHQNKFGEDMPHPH

Histone deacetylase 1 [2] = target: T2, Histone deacetylase 1 (Homo sapiens, UniProt Q13547); assay: Inhibition of HDAC1 assessed as residual activity at 32 uM after 30 mins by Fluor de Lys fluorescence assay
[3] = Selectivity ratio of IC50 for HDAC3 to IC50 for HDAC1
Histone deacetylase 3 [4] = target: T3, Histone deacetylase 3 (Homo sapiens, UniProt O15379); assay: Inhibition of HDAC3 after 30 mins by Fluor de Lys fluorescence assay
[5] = Selectivity ratio of IC50 for HDAC1 to IC50 for HDAC6
[6] = target: T4, Protein deacetylase HDAC6 (Homo sapiens, UniProt Q9UBN7); assay: Inhibition of HDAC6 after 30 mins by Fluor de Lys fluorescence assay
T4 sequence (Q9UBN7 whole entry): T1 sequence (whole entry)

Histone deacetylase = assay: Inhibition of human HDAC in HeLa cells after 30 mins by Fluor de Lys fluorescence assay; format: cell-based
Histone deacetylase 3 [7] = target: T3, Histone deacetylase 3; assay: Inhibition of HDAC3 assessed as residual activity at 32 uM after 30 mins by Fluor de Lys fluorescence assay
Histone deacetylase 1 [8] = target: T2, Histone deacetylase 1; assay: Inhibition of HDAC1 after 30 mins by Fluor de Lys fluorescence assay
[9] = Selectivity ratio of IC50 for HDAC3 to IC50 for HDAC6
Histone deacetylase 3 [10] = target: T3, Histone deacetylase 3; conditions: 375 nM
[11] = target: T1, Protein deacetylase HDAC6 (Homo sapiens); conditions: 375 nM
Histone deacetylase 1 [12] = target: T2, Histone deacetylase 1; conditions: 375 nM

T2 sequence (Q13547 whole entry): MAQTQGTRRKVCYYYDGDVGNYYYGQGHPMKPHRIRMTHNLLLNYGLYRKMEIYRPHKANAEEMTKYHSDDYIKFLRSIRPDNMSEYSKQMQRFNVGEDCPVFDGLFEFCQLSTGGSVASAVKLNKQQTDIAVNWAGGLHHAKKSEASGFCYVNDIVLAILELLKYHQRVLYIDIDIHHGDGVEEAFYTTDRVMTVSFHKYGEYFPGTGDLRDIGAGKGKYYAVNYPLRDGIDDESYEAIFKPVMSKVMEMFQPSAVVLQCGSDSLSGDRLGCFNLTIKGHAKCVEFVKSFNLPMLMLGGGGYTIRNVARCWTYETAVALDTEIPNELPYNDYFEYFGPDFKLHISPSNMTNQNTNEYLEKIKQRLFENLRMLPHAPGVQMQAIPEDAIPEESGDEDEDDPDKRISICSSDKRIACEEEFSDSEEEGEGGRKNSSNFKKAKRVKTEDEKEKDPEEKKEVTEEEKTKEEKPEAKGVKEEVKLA
T3 sequence (O15379 whole entry): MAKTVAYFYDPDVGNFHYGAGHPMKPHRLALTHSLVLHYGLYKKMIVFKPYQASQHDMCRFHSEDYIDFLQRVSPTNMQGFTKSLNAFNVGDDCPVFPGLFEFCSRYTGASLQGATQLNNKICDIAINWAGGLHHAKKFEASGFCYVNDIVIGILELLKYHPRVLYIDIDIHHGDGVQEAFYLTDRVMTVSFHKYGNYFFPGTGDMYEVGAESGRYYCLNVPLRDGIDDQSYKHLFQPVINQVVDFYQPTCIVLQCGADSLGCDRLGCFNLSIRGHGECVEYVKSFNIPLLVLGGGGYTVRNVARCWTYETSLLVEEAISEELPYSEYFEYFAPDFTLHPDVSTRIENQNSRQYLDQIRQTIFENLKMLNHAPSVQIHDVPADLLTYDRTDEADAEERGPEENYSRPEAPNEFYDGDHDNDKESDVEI

Row | Activity [1] | Activity (Histone deacetylase 1 [2]) | Ratio IC50 [5] | IC50 (Histone deacetylase) | Activity (Histone deacetylase 3 [7]) | Compound | also measured
1 | 18% | 39% | 3 | 32 µM | 83% | CCC(CCCCC(=O)Nc1ccccc1)CC(=O)NO (configuration not stated) | Ratio IC50 [3]: 4; IC50 (Histone deacetylase 3 [4]): 97 µM; IC50 [6]: 8 µM; IC50 (Histone deacetylase 1 [8]): 22 µM; Ratio IC50 [9]: 12
2 | 25% | 45% | – | 73 µM | 50% | O=C(CC(CCCCC(=O)Nc1ccccc1)c1ccccc1)NO (configuration not stated) | –
3 | 27% | 24% | – | 15 µM | 47% | C=CC(CCCCC(=O)Nc1ccccc1)CC(=O)NO (configuration not stated) | –
4 | – | – | 7 | – | – | O=C(CCCCCCC(=O)Nc1ccc([C@H]2O[C@@H](CSc3nc(-c4ccccc4)c(-c4ccccc4)o3)C[C@@H](c3ccc(CO)cc3)O2)cc1)NO | –
5 | 24% | 33% | – | 184 µM | 51% | CCCCC(CCCCC(=O)Nc1ccccc1)CC(=O)NO (configuration not stated) | –
6 | – | – | – | 0.35 µM | – | CC(CCCCC(=O)Nc1ccccc1)CC(=O)NO (configuration not stated) | Activity (Histone deacetylase 3 [10]): 59%; Activity [11]: 74%; Activity (Histone deacetylase 1 [12]): 46%
